The NIST ThermoML archive (doi:10.1016/j.fluid.2015.07.010)

Conditions: for kinematic viscosity: Liquid, Scattered Light Surfacing

CCF [fluoroethane]
Conditions | surface tension liquid-gas [mN/m]
244.13 K, Capillary rise | 16.72
246.15 K, Capillary rise | 16.42
248.13 K, Capillary rise | 16.18
250.05 K, Capillary rise | 15.87
252.1 K, Capillary rise | 15.59
254.15 K, Capillary rise | 15.26
256.05 K, Capillary rise | 14.97
258.13 K, Capillary rise | 14.69
260.05 K, Capillary rise | 14.38
262.08 K, Capillary rise | 14.13
264.13 K, Capillary rise | 13.85
266.1 K, Capillary rise | 13.58
268.08 K, Capillary rise | 13.27
270.1 K, Capillary rise | 13
272.04 K, Capillary rise | 12.69
274.1 K, Capillary rise | 12.4
276.03 K, Capillary rise | 12.08
278.14 K, Capillary rise | 11.81
280.14 K, Capillary rise | 11.54
282.14 K, Capillary rise | 11.25
284.14 K, Capillary rise | 10.95
286.12 K, Capillary rise | 10.67
288.13 K, Capillary rise | 10.38
290.12 K, Capillary rise | 10.1
292.13 K, Capillary rise | 9.82
293.43 K, Surface Light Scattering | 9.46
294.12 K, Capillary rise | 9.53
296.12 K, Capillary rise | 9.24
298.1 K, Capillary rise | 8.96
300.11 K, Capillary rise | 8.66
302.17 K, Capillary rise | 8.37
303.14 K, Surface Light Scattering | 8.16
304.11 K, Capillary rise | 8.08
305.13 K, Capillary rise | 7.95
306.12 K, Capillary rise | 7.83
308.12 K, Capillary rise | 7.54
310.18 K, Capillary rise | 7.27
312.17 K, Capillary rise | 7
313.11 K, Surface Light Scattering | 6.78
314.18 K, Capillary rise | 6.71
316.17 K, Capillary rise | 6.44
318.16 K, Capillary rise | 6.17
320.17 K, Capillary rise | 5.86
322.18 K, Capillary rise | 5.61
323.14 K, Surface Light Scattering | 5.46
324.18 K, Capillary rise | 5.39
326.17 K, Capillary rise | 5.08
328.16 K, Capillary rise | 4.84
330.17 K, Capillary rise | 4.6
332.17 K, Capillary rise | 4.33
333.15 K, Surface Light Scattering | 4.2
334.16 K, Capillary rise | 4.1
343.14 K, Surface Light Scattering | 3
353.12 K, Surface Light Scattering | 1.89
363.11 K, Surface Light Scattering | 0.92
373.09 K, Surface Light Scattering | 0.13

Conditions | kinematic viscosity [m2/s]
293.43 K | 1.81e-07
303.14 K | 1.66e-07
313.11 K | 1.52e-07
323.14 K | 1.42e-07
333.15 K | 1.32e-07
343.14 K | 1.22e-07
353.12 K | 1.12e-07
363.11 K | 1.03e-07
373.09 K | 8.97e-08
